The text below walks through data of PubChem BioAssay AID743473 (The Scripps Research Institute Molecular Screening Center, 2014).

Bounds are passed on as bounds.

Assay in all cases: metalloprotease panel inhibitors: MMPs, meprins, late-stage follow-up, selectivity assay for ADAM10 and ADAM17 inhibitor project, biochemical, QFRET, MMP1/2/8/9/10/13/14, Meprin A/B (AID 743473)
Assay [1] addresses Collagenase 3 (Homo sapiens) (UniProt P45452). Conditions: QFRET peptide cleavage, MCA fluorescence, MMP13.
Another assay addresses MMP10. Conditions: QFRET peptide cleavage, MCA fluorescence.
A further assay has as its target MMP14. The conditions noted are these: QFRET peptide cleavage, MCA fluorescence.
In another assay the target is MMP1. Conditions: QFRET peptide cleavage, MCA fluorescence.
The target of another assay is MMP2. The conditions noted are these: QFRET peptide cleavage, MCA fluorescence.
The target in another assay is MMP8. The conditions noted are these: QFRET peptide cleavage, MCA fluorescence.
Another assay deals with MMP9. The conditions noted are these: QFRET peptide cleavage, MCA fluorescence.
The next assay addresses Meprin A. The conditions noted are these: QFRET peptide cleavage, MCA fluorescence.
A further assay concerns the target Meprin B. The conditions noted are these: QFRET peptide cleavage, MCA fluorescence.

The IC50 is the concentration that inhibits the measured activity by half. Low values mean inhibition by little substance, high ones a need for much substance. In the case of `CCOc1ccc(NC(=O)CC2SC(=O)N(c3ccccc3)C2=O)cc1` (stereo unspecified), the IC50 in [1] is 35.8 µM; against MMP10, 28.6 µM; against MMP14 it was 36.9 µM; against MMP1, 75 µM; against MMP2 it was 4.7 µM; against MMP8, 1.6 µM. For the same compound, the IC50 at MMP9 is 3 µM; against Meprin A it was over 100 µM; on Meprin B it was over 100 µM.
With `O=C(O)CCC(=O)c1c[nH]c2ccccc12`, the IC50 (in assay [1]; at MMP10; against MMP14; on MMP1; against MMP2; on MMP8) was over 100 µM throughout. In addition, the IC50 against MMP9, at Meprin A and against Meprin B was over 100 µM in each case.
Take `COc1cccc(C(=O)NNC(=O)C(=O)Nc2ccc(C)c(Cl)c2)c1`: the IC50 (in assay [1]; against MMP10; on MMP14; against MMP1; on MMP2; at MMP8) was over 100 µM each time. The IC50 on MMP9, against Meprin A and on Meprin B was over 100 µM each time.
Take `O=C1NC(=O)C(Cc2ccc(Cl)cc2)(c2ccccc2)N1` (stereo unspecified): the IC50 in assay [1] is over 100 µM; at MMP10 it was over 100 µM; on MMP14, over 100 µM; at MMP1, 18.5 µM; against MMP2 it was over 100 µM; on MMP8, 6.4 µM. In addition, the IC50 against MMP9, at Meprin A and on Meprin B was over 100 µM each time.
